This note sets out measurements from article PMC3399898, “Immobilization of β-Galactosidase onto Functionalized Graphene Nano-sheets Using Response Surface Methodology and Its Analytical Applications” (PLoS ONE, 2012).

This assay deals with T1, Chick pea β-galactosidase (CpGAL).
T1 construct: native enzyme purified from dry seeds (local market), homogeneous on SDS-PAGE; soluble (free) form
The experiment in a line: steady-state kinetics, Lineweaver-Burk plot. The assay is classed as biochemical, Cicer arietinum. The following applies: soluble enzyme; optimum pH 2.8, 60 °C printed; pH of the Km assay not stated; read-out: Soluble / ONPG. The text has this:
steady-state kinetics, Lineweaver-Burk plot on Chick pea β-galactosidase (CpGAL)

Structures are written as SMILES.

As for `O=[N+]([O-])c1ccccc1O[C@@H]1O[C@H](CO)[C@H](O)[C@H](O)[C@H]1O` [ONPG], the Km is 1730 µM.
